Literature values, collected in US20070043121A1 (priority 2003, published 2007).

How the values were obtained:
[1] = test system: sodium channel (3H-batrachotoxin)
[2] = water

CC(C)c1cccc(C(C)C)c1O [Propofal, 2,6-diisopropylphenol]
IC50 [1]: 26 µM
aqueous solubility [2]: very water insoluble
